Assay results from patent US20240083857A1, “2-Methyl-Quinazolines” (Bayer Pharma Aktiengesellschaft, priority 2017, published 2024).
Like-named read-outs stand apart in the source and are kept apart here.

Assays:
[1] = target: human SOS1 (nucleotide exchange of K-Ras^G12C) (Homo sapiens, UniProt Q07889); experiment: Biochemical assay 2: K-Ras^G12C activation assay by hSOS1 at high GTP concentration (HTRF); settings: high GTP; for inhibition at 20 µM: read-out: Assay 2 (KRAS-Activation by SOS high GTP) activity expressed as % inhibition at 20 μM; for IC50: read-out: Assay 2 (KRAS-Activation by SOS high GTP) activity expressed as IC50
[2] = target: Epidermal Growth Factor Receptor (EGFR) (Homo sapiens (Human), UniProt P00533); experiment: EGFR kinase assay (TR-FRET); assay type: biochemical; settings: read-out: EGFR kinase inhibition IC50
Chain of Epidermal Growth Factor Receptor (EGFR) (P00533 25-1210): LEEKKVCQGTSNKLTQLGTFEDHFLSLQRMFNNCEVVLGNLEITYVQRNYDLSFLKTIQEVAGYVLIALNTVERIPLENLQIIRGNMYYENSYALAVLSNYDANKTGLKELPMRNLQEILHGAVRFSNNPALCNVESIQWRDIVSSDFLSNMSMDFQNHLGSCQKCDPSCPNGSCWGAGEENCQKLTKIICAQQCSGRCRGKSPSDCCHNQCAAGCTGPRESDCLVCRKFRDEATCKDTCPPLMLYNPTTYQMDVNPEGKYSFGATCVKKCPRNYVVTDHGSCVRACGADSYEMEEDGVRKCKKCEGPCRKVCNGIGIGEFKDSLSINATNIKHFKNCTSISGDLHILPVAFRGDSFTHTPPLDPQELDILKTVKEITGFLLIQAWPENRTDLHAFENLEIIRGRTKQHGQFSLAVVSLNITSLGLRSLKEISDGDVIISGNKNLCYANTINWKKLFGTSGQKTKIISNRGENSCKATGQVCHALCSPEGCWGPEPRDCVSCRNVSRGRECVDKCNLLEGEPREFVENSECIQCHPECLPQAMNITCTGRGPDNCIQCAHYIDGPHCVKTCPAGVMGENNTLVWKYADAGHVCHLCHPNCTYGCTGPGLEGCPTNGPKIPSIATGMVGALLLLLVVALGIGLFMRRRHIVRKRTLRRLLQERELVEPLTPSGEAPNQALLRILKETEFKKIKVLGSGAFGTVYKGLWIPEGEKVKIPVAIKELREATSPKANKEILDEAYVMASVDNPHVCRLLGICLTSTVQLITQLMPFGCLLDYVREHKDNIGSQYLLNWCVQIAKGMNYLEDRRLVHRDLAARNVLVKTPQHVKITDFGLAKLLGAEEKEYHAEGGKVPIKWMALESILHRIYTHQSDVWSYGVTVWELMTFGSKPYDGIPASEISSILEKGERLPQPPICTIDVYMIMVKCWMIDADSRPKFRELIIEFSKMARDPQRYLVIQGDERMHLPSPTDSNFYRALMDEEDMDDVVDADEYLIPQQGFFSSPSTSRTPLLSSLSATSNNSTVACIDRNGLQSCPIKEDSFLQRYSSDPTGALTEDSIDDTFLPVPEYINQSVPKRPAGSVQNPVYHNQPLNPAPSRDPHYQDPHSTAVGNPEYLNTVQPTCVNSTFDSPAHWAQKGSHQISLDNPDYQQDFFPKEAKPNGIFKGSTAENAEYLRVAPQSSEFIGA
Summary of the method: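 EGFR purified from A431 cells was preincubated with compound 15 min at 22° C in pH 7.0 Hepes buffer with MgCl2, MnCl2 and vanadate before reaction with a biotinylated peptide. After EDTA stop, phosphopeptide was detected by TR-FRET (anti-phosphotyrosine Tb-cryptate, streptavidin-XL665) as the 665/620 nm emission ratio.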

COc1cc2nc(C)nc(N[C@H](C)c3ccc(C4=CCN(C)CC4)cc3)c2cc1OC [Example 201, 6,7-dimethoxy-2-methyl-N-{(1R)-1-[4-(1-methyl-1,2,3,6-tetrahydropyridin-4-yl)phenyl]ethyl}quinazolin-4-amine]
inhibition at 20 µM [1]: 20%
IC50 ([2]; values given in μM): > 20 µM

COc1cc2nc(C)nc(N[C@H](C)c3cccc(C4=CCN(C)CC4)c3)c2cc1OC [Example 202, 6,7-dimethoxy-2-methyl-N-{(1R)-1-[3-(1-methyl-1,2,3,6-tetrahydropyridin-4-yl)phenyl]ethyl}quinazolin-4-amine]
IC50 [1]: 0.979 µM
IC50 ([2]; values given in μM): > 20 µM

C=C(C)c1ccc([C@@H](C)Nc2nc(C)nc3cc(OC)c(OC)cc23)cc1 [Example 203, 6,7-dimethoxy-2-methyl-N-{(1R)-1-[4-(prop-1-en-2-yl)phenyl]ethyl}quinazolin-4-amine]
IC50 [1]: 1.38 µM
IC50 ([2]; values given in μM): > 20 µM

COc1cc2nc(C)nc(N[C@H](C)c3cccc(C4CC4)c3)c2cc1OC [Example 204, N-[(1R)-1-(3-cyclopropylphenyl)ethyl]-6,7-dimethoxy-2-methylquinazolin-4-amine]
IC50 [1]: 0.265 µM
IC50 ([2]; values given in μM): > 20 µM

COc1cc2nc(C)nc(NC(C)c3cccc4sccc34)c2cc1OC (stereo not drawn) [Example 205, N-[1-(1-benzothiophen-4-yl)ethyl]-6,7-dimethoxy-2-methylquinazolin-4-amine]
IC50 [1]: 0.0872 µM
IC50 ([2]; values given in μM): > 20 µM

COc1cc2nc(C)nc(N[C@H](C)c3ccccc3)c2cc1OC [Example 206, 6,7-dimethoxy-2-methyl-N-[(1R)-1-phenylethyl]quinazolin-4-amine]
IC50 [1]: 1 µM
IC50 ([2]; values given in μM): > 20 µM

COc1cc2nc(C)nc(NC(C)c3cccs3)c2cc1OC (stereo not drawn) [Example 207, 6,7-dimethoxy-2-methyl-N-[1-(thiophen-2-yl)ethyl]quinazolin-4-amine]
IC50 [1]: 2.27 µM
IC50 ([2]; values given in μM): > 20 µM

COc1cc2nc(C)nc(NC(C)c3ccc(-c4ccccc4CN4CCC(O)C4)s3)c2cc1OC (stereo not drawn) [Example 210, 1-[2-(5-{1-[(6,7-dimethoxy-2-methylquinazolin-4-yl)amino]ethyl}thiophen-2-yl)benzyl]pyrrolidin-3-ol]
IC50 [1]: 0.109 µM
IC50 ([2]; values given in μM): > 20 µM

COc1cc2nc(C)nc(NC(C)c3ccc(-c4ccccc4CN4CC[C@H](F)C4)s3)c2cc1OC (stereo partly drawn) [Example 211, N-{1-[5-(2-{[(3S)-3-fluoropyrrolidin-1-yl]methyl}phenyl)thiophen-2-yl]ethyl}-6,7-dimethoxy-2-methylquinazolin-4-amine]
IC50 [1]: 0.292 µM
IC50 ([2]; values given in μM): > 20 µM

COc1cc2nc(C)nc(NC(C)c3ccc(-c4ccccc4)o3)c2cc1OC (stereo not drawn) [Example 213, 6,7-dimethoxy-2-methyl-N-[1-(5-phenylfuran-2-yl)ethyl]quinazolin-4-amine]
IC50 [1]: 6.31 µM
IC50 ([2]; values given in μM): > 20 µM

COc1cc2nc(C)nc(NC(C)c3cc(Br)cc4c3OCC4)c2cc1OC (stereo not drawn) [Example 214, N-[1-(5-bromo-2,3-dihydro-1-benzofuran-7-yl)ethyl]-6,7-dimethoxy-2-methylquinazolin-4-amine]
IC50 [1]: 3.96 µM
IC50 ([2]; values given in μM): > 20 µM

COc1cc2nc(C)nc(NC(C)c3cccc(Oc4ccccc4)c3)c2cc1OC (stereo not drawn) [Example 215, 6,7-dimethoxy-2-methyl-N-[1-(3-phenoxyphenyl)ethyl]quinazolin-4-amine]
IC50 [1]: 1.16 µM
IC50 ([2]; unit inferred): 2.57 µM

COc1cc2nc(C)nc(NC(C)c3cccc(-c4nn[nH]n4)c3)c2cc1OC (stereo not drawn) [Example 216, 6,7-dimethoxy-2-methyl-N-{1-[3-(2H-tetrazol-5-yl)phenyl]ethyl}quinazolin-4-amine]
IC50 [1]: 17 µM
IC50 ([2]; values given in μM): > 20 µM

COc1cc2nc(C)nc(NC(C)c3cccc4cccnc34)c2cc1OC (stereo not drawn) [Example 217, 6,7-dimethoxy-2-methyl-N-[1-(quinolin-8-yl)ethyl]quinazolin-4-amine]
inhibition at 20 µM [1]: 50%
IC50 ([2]; values given in μM): > 20 µM

COc1cc2nc(C)nc(NC(C)c3ccc(-c4cnn(CCO)c4)s3)c2cc1OC (stereo not drawn) [Example 218, 2-[4-(5-{1-[(6,7-dimethoxy-2-methylquinazolin-4-yl)amino]ethyl}thiophen-2-yl)-1H-pyrazol-1-yl]ethanol]
IC50 [1]: 1.37 µM
IC50 ([2]; values given in μM): > 20 µM
